Results as given in article PMC6132687, “Stem cells are the most sensitive screening tool to identify toxicity of GATA4-targeted novel small-molecule compounds” (Archives of Toxicology, 2018).

Columns and labels:
[1] = test system: GATA4–NKX2-5 transcriptional synergy; test: Luciferase reporter assay of GATA4–NKX2-5 synergistic gene activation in COS-1 cells; type: cell-based, African green monkey; settings: 24 h treatment, normalized to DMSO
Protocol: COS-1 cells were used to investigate the compound effects on GATA4–NKX2-5 synergistic gene activation using a luciferase reporter assay (Kinnunen et al. [2015]). Toxicity profiling was carried out in eight cell types: the H9c2 myoblast cell line, NRVCs, CFs, mESCs, MEFs, mESC derivatives from day 5 embryoid bodies (D5EBs), hiPSCs and hiPSC-CMs. All cell cultures were maintained at 37 °C in a humidified atmosphere of 5% carbon dioxide (CO2) and the regular growth medium was used for compound exposures. Cell culture methods and cardiomyocyte differentiation from human pluripotent stem cells are described in Supplementary Information.
The empty expression plasmid MT2 (pMT2) and mouse Gata4 expressing pMT2-Gata4 plasmids were gifts from D. B. Wilson (Department of Pediatrics, St. Louis Children’s Hospital) (Arceci et al. [1993]). The luciferase reporter plasmid pGL3-3xHA containing three Nkx2-5 high-affinity binding sites has been described previously (Kinnunen et al. [2015]). To create mouse Nkx2-5 expressing pMT2-Nkx2-5, the cDNA was cloned from pFLCI-Nkx2-5 (clone D330001C20, Imagenes), which was a kind gift from R. Kerkelä (University of Oulu, Finland), with primers containing the EcoRI restriction site (forward: 5′-[…]-3′ and reverse 5′-[…]-3′) and ligated to pMT2 EcoRI site. The correct clone was identified by digestion with specific restriction enzymes and the sequence was verified by DNA sequencing (DNA Sequencing and Genomics Laboratory, Institute of Biotechnology, University of Helsinki, Finland).
COS-1 cells grown on 96-well plates were transfected with the luciferase reporter plasmid pGL3-3xHA (100 ng/well) and equal amounts of expression vectors pMT2-Gata4 and pMT2-Nkx2-5 (total of 50 ng/well) using Fugene 6 (Promega) at a reagent:DNA ratio of 3:1. Cells transfected with either pMT2, pMT2-Gata4 or pMT2-Nkx2-5 were used to confirm synergistic transactivation of the reporter gene in all experiments. After 6 h of transfection, the cells were treated with compounds or vehicle (0.1% dimethyl sulfoxide, DMSO) and the luminescence was measured 24 h later using Neolite Reporter Gene Assay System (PerkinElmer, Turku, Finland) according to manufacturer’s instructions and Victor2 plate reader (PerkinElmer, Turku, Finland). Each compound was tested in three technical replicates in at least two independent experiments.
A luciferase reporter assay with an artificial promoter containing three high-affinity binding sites for NKX2-5 was used to evaluate the effects of the compounds on GATA4–NKX2-5 transcriptional synergy (Kinnunen et al. [2015]). We have previously shown that while GATA4 alone induces only minimal activation of this promoter, it strongly potentiates NKX2-5-mediated transactivation (Kinnunen et al. [2015]; Välimäki et al. [2017]).

[2] = test system: stem cell and progenitor cell viability; test: Toxicity classification from MTT screening across cell types; settings: based on effects on stem cell and progenitor cell viability
Protocol: The cells were exposed to the test compounds for 24 h and cytotoxicity was quantified with MTT and LDH assays as described previously (Talman et al. [2011]). For the determination of cell membrane integrity, 50 µl of medium from each well was transferred onto a new 96-well plate followed by addition of 50 µl of substrate solution containing 1.3 mM β-nicotinamide adenine dinucleotide, 660 µM iodonitrotetrazolium, 54 mM L(+)-lactic acid, 280 µM phenazine methosulphate and 0.2 M Tris–HCl (pH 8.0). After a 30-min incubation, the reaction was stopped by adding 50 µl of 1 M acetic acid to each well and absorbance was measured at 490 nm using Victor2 plate reader (PerkinElmer, Turku, Finland). Spontaneous LDH release was measured from untreated cells, maximal LDH release from cells lysed with 0.9% Triton X-100 and background absorbance was measured from wells without cells. After background extraction, cytotoxicity was calculated as follows: cytotoxicity (%) = [(sample − spontaneous LDH release)/(maximal LDH release − spontaneous LDH release)] × 100. For quantification of metabolic activity, 3-(4,5-dimethylthiazol-2-yl)-2,5-diphenyltetrazolium bromide (MTT) was added to the cells at a final concentration of 0.5 mg/ml followed by 2 h incubation in cell culture conditions. The medium was then aspirated and formazan crystals were solubilized in DMSO. Absorbance was measured at 550 nm and absorbance at 650 nm was subtracted as background.
When comparing the effects of different compounds within each individual cell type, the compounds can be grouped into two main classes: toxic (3i-1000, 3i-1120, 3i-1148 and 3i-1229) and non-toxic (3i-1047, 3i-1051, 3i-1165, and 3i-1228) compounds. Based on the hiPSC toxicity data, 3i-1148 can be considered as the most toxic compound with an IC50 of 0.30 µM (Fig. 5b).

Structure (SMILES)	effect on GATA4- and NKX2-5-induced gene activation (luciferase reporter activity) [1]	toxicity class (toxic / non-toxic) [2]
CCN(CC)c1ccc(NC(=O)c2c(-n3cccc3)sc(C)c2C)cc1 [3i-1165]	only a weak effect	non-toxic
CCN(CC)c1ccc(NC(=O)c2c(-c3coc(C)n3)noc2C)cc1 [3i-1228]	ineffective	non-toxic
CCN(CC)c1ccc(NC(=O)c2ccsc2)cc1 [3i-1051]	ineffective	non-toxic
